Experimental data from ChEMBL document CHEMBL1201862, “PubChem BioAssay data set” (2004).
Activity calls are given as the source filed them.

How the values were obtained:
[1] = target: T1, Short transient receptor potential channel 4 (Mus musculus, UniProt Q9QUQ5); test: mouse TRPC4 channel activators, dose response, cell-based, HEK293 TRPC4/mu-opioid, Fluo-4 calcium (AID 434937); type: functional
T1 sequence (Q9QUQ5 whole entry): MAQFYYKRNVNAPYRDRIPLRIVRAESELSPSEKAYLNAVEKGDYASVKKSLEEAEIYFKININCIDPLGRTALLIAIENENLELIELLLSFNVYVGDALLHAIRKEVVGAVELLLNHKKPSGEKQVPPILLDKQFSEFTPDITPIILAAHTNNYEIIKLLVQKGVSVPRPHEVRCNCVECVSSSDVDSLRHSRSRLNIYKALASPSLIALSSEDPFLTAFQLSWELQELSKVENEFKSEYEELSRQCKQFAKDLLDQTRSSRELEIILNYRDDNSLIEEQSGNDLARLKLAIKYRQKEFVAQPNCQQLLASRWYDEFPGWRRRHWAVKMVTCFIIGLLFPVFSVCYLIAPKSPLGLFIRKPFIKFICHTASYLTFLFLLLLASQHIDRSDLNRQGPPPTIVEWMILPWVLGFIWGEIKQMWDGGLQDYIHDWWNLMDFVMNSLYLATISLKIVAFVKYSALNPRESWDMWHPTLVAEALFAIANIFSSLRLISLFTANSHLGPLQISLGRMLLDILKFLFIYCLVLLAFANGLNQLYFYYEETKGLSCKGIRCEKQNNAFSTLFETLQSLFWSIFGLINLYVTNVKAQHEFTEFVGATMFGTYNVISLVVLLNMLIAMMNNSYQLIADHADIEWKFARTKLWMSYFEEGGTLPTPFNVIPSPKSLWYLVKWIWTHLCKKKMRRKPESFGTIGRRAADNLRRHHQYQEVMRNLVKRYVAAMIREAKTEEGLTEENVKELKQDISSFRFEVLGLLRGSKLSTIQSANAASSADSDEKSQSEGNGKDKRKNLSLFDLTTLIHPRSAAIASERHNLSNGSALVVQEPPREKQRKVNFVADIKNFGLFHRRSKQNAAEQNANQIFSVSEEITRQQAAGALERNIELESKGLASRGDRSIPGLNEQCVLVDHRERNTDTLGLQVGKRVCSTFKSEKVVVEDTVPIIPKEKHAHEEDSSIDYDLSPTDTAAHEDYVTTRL

[2] = cytotoxicity toward NIH3T3 fibroblasts, dose response, counter-screen, cell-based, ATP luminescence, mouse fibroblasts (AID 2010); type: functional;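 further: cells exposed to compound for about 90 hours before reading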
[3] = target: T2, Heat shock factor protein 1 (Mus musculus, UniProt P38532); test: HSF1 potentiators in luciferase reporter cells, confirmation, cell-based, NIH3T3, luminescence, dose retest (AID 435004); type: functional;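 further: stress induced by proteasome inhibitor MG132 added 30 min after compound; luciferase reporter driven by HSF1 response element in NIH3T3 cells; actives raise luminescence as potentiators of the MG132 stress response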
T2 sequence (P38532 whole entry): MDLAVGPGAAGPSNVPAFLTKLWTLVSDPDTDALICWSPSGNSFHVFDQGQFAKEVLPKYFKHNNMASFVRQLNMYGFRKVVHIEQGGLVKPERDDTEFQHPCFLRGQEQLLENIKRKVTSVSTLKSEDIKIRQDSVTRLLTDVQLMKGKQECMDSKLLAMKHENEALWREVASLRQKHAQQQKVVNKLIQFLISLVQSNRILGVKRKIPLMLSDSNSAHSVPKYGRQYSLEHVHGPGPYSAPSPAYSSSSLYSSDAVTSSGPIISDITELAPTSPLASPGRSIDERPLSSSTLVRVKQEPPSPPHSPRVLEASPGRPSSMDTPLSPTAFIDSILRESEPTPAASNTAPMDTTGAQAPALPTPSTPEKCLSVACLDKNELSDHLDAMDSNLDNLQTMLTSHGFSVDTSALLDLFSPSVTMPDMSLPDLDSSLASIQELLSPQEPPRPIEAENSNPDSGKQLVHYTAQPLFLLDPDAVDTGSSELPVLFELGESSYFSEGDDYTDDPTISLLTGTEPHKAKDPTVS

[4] = ZM109 Env clade C HIV-1 fusion inhibitors, dose response, HeLa effector, CEM target cells, luciferase, cherry-pick (AID 652058); type: functional, cell-based
[5] = inhibitors of intracellular T. cruzi replication, confirmation, NIH3T3 host cells, beta-gal luminescence (AID 2044); type: functional, cell-based;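 further: intracellular parasites grown in NIH/3T3 mouse fibroblasts as host cells; luminescent beta-galactosidase reporter signal from transgenic T. cruzi replicating inside host cells; inhibitors lower the luminescence signal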
[6] = target: FAD-linked sulfhydryl oxidase ALR (Homo sapiens, UniProt P55789); test: inhibitors of human ALR sulfhydryl oxidase, dose response, biochemical, H2O2 detection, luminescence, cherry-pick (AID 493248)
[7] = target: T3, High affinity choline transporter 1 (Homo sapiens, UniProt Q9GZV3); test: CHT inhibitors, dose response, cell-based, 5-point CRC, membrane potential dye (AID 504840); type: functional
T3 sequence (Q9GZV3 whole entry): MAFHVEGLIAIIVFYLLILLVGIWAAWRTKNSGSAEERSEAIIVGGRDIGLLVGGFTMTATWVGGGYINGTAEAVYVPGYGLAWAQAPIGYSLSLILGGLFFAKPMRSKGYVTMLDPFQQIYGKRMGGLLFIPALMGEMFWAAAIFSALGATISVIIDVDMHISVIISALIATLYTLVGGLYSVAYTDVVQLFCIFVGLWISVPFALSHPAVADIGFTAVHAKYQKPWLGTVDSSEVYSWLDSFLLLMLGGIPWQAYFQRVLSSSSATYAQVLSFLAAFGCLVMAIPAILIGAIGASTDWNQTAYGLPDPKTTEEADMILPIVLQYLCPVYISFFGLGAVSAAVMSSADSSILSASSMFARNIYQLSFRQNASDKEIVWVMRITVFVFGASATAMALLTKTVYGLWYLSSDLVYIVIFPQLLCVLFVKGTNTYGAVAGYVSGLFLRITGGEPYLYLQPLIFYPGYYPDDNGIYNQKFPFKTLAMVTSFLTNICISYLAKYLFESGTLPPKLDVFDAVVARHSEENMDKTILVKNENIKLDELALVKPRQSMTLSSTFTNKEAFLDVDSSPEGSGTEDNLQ

[8] = target: T4, Corticotropin-releasing factor receptor 2/Corticotropin-releasing factor-binding protein (Homo sapiens, UniProt P24387+Q13324); test: activators of CRF receptor 2 with binding protein – uHTS hits, confirmation (AID 602473); type: functional; conditions: read-out: EC50_Mean
T4 sequence (Q13324 whole entry): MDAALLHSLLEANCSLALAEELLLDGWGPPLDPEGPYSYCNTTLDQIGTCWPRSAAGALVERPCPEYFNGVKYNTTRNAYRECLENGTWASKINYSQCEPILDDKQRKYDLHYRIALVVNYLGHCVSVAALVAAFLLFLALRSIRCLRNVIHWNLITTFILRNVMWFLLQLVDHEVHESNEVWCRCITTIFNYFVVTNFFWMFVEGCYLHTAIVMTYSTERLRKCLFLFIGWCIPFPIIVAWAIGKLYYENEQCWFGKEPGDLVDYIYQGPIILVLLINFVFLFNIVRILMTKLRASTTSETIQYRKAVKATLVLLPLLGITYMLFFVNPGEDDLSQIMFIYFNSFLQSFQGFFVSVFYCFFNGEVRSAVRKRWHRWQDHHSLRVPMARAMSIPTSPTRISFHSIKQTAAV
T4 sequence (P24387 whole entry): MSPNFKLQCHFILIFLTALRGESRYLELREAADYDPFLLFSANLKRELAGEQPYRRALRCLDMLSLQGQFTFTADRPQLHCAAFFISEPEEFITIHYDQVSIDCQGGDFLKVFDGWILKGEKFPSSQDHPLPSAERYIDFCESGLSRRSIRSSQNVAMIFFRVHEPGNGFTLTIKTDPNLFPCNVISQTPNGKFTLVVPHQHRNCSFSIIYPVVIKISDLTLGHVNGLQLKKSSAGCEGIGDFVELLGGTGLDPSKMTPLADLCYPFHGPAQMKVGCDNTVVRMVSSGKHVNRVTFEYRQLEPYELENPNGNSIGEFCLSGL

[9] = inhibitors of HIV Env-driven cell fusion, dose response, cherry-pick (AID 652057); type: functional, cell-based
[10] = inhibitors of clade B AD8 Env fusion, dose response, cell-based, cherry-pick (AID 652062); type: functional;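 further: luciferase signal from cell-cell fusion driven by HIV-1 clade B AD8 Env; potency is for inhibitors of fusion seen as a drop in luminescence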

Chain of FAD-linked sulfhydryl oxidase ALR (P55789 whole entry): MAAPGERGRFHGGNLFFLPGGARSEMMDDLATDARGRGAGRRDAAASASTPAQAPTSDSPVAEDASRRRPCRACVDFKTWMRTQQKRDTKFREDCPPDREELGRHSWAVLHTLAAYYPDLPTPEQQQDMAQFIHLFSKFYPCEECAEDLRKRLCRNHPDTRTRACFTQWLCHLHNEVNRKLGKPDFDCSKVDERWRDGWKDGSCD

SMILES: CCOc1ncccc1C(=O)NCC(c1ccccc1)N(C)C (stereo unspecified)
- EC50 [1]: 1.19 µM (active)

SMILES: CN(C)CCN(C(=O)c1cccc2ccccc12)c1nc2cc3c(cc2s1)OCO3
- EC50 [1]: 5.96 µM (active)

SMILES: C=C(C)CN(CC)c1nc(N)c2c(N)nc3c(c2c1C#N)CC(=O)N3C12CC3CC(CC(C3)C1)C2
- EC50 [2]: > 60 µM (not active)
- EC50 [3]: > 260 µM (inactive)
- AC50 [4]: 7.36 µM (active)
- EC50 [5]: 1.69 µM (active)

SMILES: Sc1n[nH]c(-c2cc(Cl)cc(Cl)c2)n1
- AC50 [6]: 1.72 µM (active)
- IC50 [7]: 10.5 µM (active)

SMILES: Cn1c2ccccc2c(=O)c2c(=O)n(C3CCCCC3)c(-c3ccco3)nc21
- EC50 [1]: 4.73 µM (active)
- EC50 [8]: 8.22 µM (active)

SMILES: CC(C)N(C)CCOC(=O)C1COc2ccccc2O1 (stereo unspecified)
- IC50 [7]: 13.8 µM (active)

SMILES: COc1ccccc1Nc1ncnc2ccc(C)cc12
- IC50 [7]: 13.8 µM (active)

SMILES: Cc1ccc(C(=O)Nc2ccc(S(=O)(=O)NC3=NCCCCC3)cc2)c(C)c1
- IC50 [7]: 10.8 µM (active)

SMILES: CC(C)NC(=O)Nc1ccc2c(c1)C(=O)N([C@@H](C)CO)C[C@@H](C)[C@@H](CN(C)C(=O)CCC(F)(F)F)OCCCC[C@@H](C)O2
- AC50 [4]: 0.518 µM (active)
- AC50 [9]: 0.969 µM (active)
- AC50 [10]: 2.7 µM (active)

SMILES: CCCNC(=O)N1[C@H](C#N)[C@H](c2ccc(-c3ccc(C(=O)N(C)C)cc3)cc2)[C@@H]1CO
- AC50 [4]: 32.8 µM (active)
- AC50 [10]: 0.784 µM (active)

SMILES: Cc1ccc(S(=O)(=O)N(C)C[C@@H]2Oc3cc(C4=CCCC4)ccc3S(=O)(=O)N([C@@H](C)CO)C[C@H]2C)cc1
- AC50 [4]: 67.6 µM (active)
- AC50 [9]: 4.07 µM (active)
- AC50 [10]: 41.6 µM (active)
